We go through ten compounds from patent publication US6903104B2, “Indol-3-YL-2-oxoacetamide compounds and methods of use thereof” (National Health Research Institutes, priority 2001, dated 2005).

Each structure is given as a SMILES string.

Assay [1] relates to colorectal DLD1 cancer cells. Put plainly: In vitro cytotoxicity MTS assay, colorectal DLD1. It is filed as cell-based, human. As to conditions: 72 hours. As to the method: (§1) A panel of human cancer cells, gastric NUGC3 and HR, nasopharyngeal HONE1, hepatocellular HEP G2 and HA-22T, colorectal DLD1, lung A549, prostate PC3, breast MCF7 and its adriamycin-resistant MCF7/ADR subline, uterus MES-SA and its adriamycin-resistant MES-SA/Dx5 subline, is purchased from Food Industry Research and Development Institute, Hsinchu, Taiwan R.O.C. or American Type Culture Collection, Manassas, Va. U.S.A., are used in in vitro cytotoxicity assays. The human cells are seeded at a cell density of 3000 or 4500 cells/100 μl/well in 96-well flat-bottom plates and incubated for 24 hours at 37° C. in a 5% CO2 incubator. The testing compounds are dissolved in dimethyl sulfoxide (DMSO) and further diluted into the culture medium for treatments of human cancer cells in vitro. The drug-containing media has a final DMSO concentration of ≦0.3%. The compounds of this invention are prepared in culture media for testing at a range of concentrations from 10, 1, 0.1, 0.01 to 0.001 μM. Each compound solution is (200 μl/well in duplicate) in the cell plates and is treated for 72 hours at 37° C., 5% CO2 in an incubator. Actinomycin D at 5 μM and 0.3% DMSO are used as the positive and vehicle controls, respectively. A colorimetric assay using 3-(4,5-dimethylthiazol-2-yl)-5-(3-carboxymethoxyphenyl)-2-(4-sulfophenyl)-2H-tetrazolium (MTS) and phenazine methosulfate (PMS) is used to determine the potency of the compounds. This assay measures cell viability based on the cellular activity in conversion of a tetrazolium salt into a colored soluble formazan product. The optical density (OD) values are measured at 490 nm with a 1420 multilabel counter VICTOR® from Wallac, Turku, Finland. All of the measured values are subtracted with that of the blank control wells without cells before further calculations. The efficacy data are expressed as a percentage normalized to the vehicle controls as calculated in the following formulae. Inhibitory potency (% of vehicle control)=[(OD490compound−OD490blank)/(OD490vehicle−OD490blank)]×100%. The concentration (IC50) of a test compound that inhibits 50% of the cellular activity is determined.
(Tetrazolium dyes change colour on reduction, which living cells bring about.)

The test system of assay [2] is hepatocellular HA-22T cancer cells. Description: In vitro cytotoxicity MTS assay, hepatocellular HA-22T. The format is cell-based, human. As to conditions: 72 hours. The method, then:
as §1

For assay [3], the system named is hepatocellular HEP G2 cancer cells. Description: In vitro cytotoxicity MTS assay, hepatocellular HEP G2. It is filed as cell-based, human. As to conditions: 72 hours. The method, then: as §1
In assay [4] the test system is nasopharyngeal HONE1 cancer cells. Description: In vitro cytotoxicity MTS assay, nasopharyngeal HONE1. The format is cell-based, human. As to conditions: 72 hours. The method, then: as §1
For a further assay, the system named is gastric HR cancer cells. Description: In vitro cytotoxicity MTS assay, gastric HR. The format is cell-based, human. As to conditions: 72 hours. The method, then:
as §1

For assay [5], the system named is gastric NUGC3 cancer cells. Put plainly: In vitro cytotoxicity MTS assay, gastric NUGC3. The format is cell-based, human. The following applies: 72 hours. As to the method: as §1
A further assay concerns breast MCF7 cancer cells. Put plainly: In vitro cytotoxicity MTS assay, breast MCF7. The format is cell-based, human. As to conditions: 72 hours. As to the method:
as §1

Assay [6] has as its system adriamycin-resistant MCF7/ADR subline. Description: In vitro cytotoxicity MTS assay, adriamycin-resistant MCF7/ADR. The format is cell-based, human. As to conditions: 72 hours. The method, then:
as §1

In assay [7] the test system is rat aorta endothelial cells. Put plainly: Rat aorta tube formation assay (angiogenesis inhibition). The format is cell-based, Spraque-Dawley rats. The arrangement: key: Noninhibitors are indicated by the symbol (−), meaning that the extent of endothelial cell growth is essentially at the same level as that of the control; The most potent inhibitors receive a score of (+++++), indicating essentially no measurable endothelial cell growth. As to conditions: 5 days. As to the method:
The procedures are modified from previous reports (Burbridge and West 2001; Bauer et al. 2000; Nicosai and Ottinetti 1990a) and described as follows. Male Spraque-Dawley rats of 6-8 weeks old are purchased from the National Laboratory Animal Breeding and Research Center (Taipei, Taiwan). The animals are anesthetized with urethane (2 g/kg, intraperitoneal) and the thoracic aortas are quickly harvested in a laminar flow hood. The aortas are rinsed with ice-cold normal saline with 10 μg/ml gentamicin and the attached fibroadipose tissues are removed using micro-dissection scissors. The aortas are cross-sectioned into rings of 1 mm in thickness. A mixture of Matrigel®, purchased from BD Biosciences, solution and the EBM-II medium, purchased from BioWhittaker Inc., (1:1) with 2% FBS, 0.25 mg/ml, amphotericin B and 10 μg/ml gentamicin is prepared and added at 100 μl to each well of a 48-well plate. The mixture is allowed to gel at 37° C. Aorta rings are then placed onto the gelled matrix and embedded in an additional 150 μl per well of the mixture solution and allowed to gel at 37° C. The aorta rings are then covered with 125 μl of the EGM-II medium and incubated overnight in humidified incubator with 5% CO2/95% air at 37° C. After removal of the EGM-II from the established aorta cultures, the compound-containing media are applied at 300 μl per well to the cultures and then incubated in 5% CO2/95% air at 37° C. for 5 days. The cultures are then subject to the 3-[4,5-dimethylthiazol-2-yl]-2,5 diphenyl-2H-tetrazolium bromide (MTT) or 3-(4,5-dimethylthiazol-2-yl)-5-(3-carbomethoxyphenyl)-2H-tetrazolium (MTS) assay and OD490 nm values measured. The testing compounds are dissolved in dimethyl sulfoxide (DMSO) and prepared in EBM-II media with at a final concentration of DMSO less than 0.1%.
The capillary-like, tube structure of the outgrown rat aorta endothelial cells is easily visualized by MTT staining. The medium on top of the matrix is removed from the established aorta ring cultures. MTT solution of 5 mg/ml in saline is added to the cultures at 100 μl/well and the cultures are incubated in a CO2 incubator at 37° C. for 24 hr. The stained cultures are then examined under a microscope DMIRB from Leica and photos taken with a digital camera.
Inhibition activity is also assessed in the following manner. The reductive reaction of MTS initiated by the viable cellular mitochondrial activity is used as a basis for the measurement of cell viability (Cory et al. 1991; Gieni et al. 1995). To the rat aorta ring cultures 300 μl of a solution containing 100 μg MTS and 1 μg, phenazine methosulfate is added per well and incubated in 5% CO2/95% air at 37° C. for 24 hr. During the incubation, MTS is converted to formazan product. At the end of incubation, the solution overlaying the gel is well-mixed and 100 μl aliquots are transferred into a 96-well plate for measurement of OD490 nm with a spectrophotometer VICTOR™-II from Wallac Oy.
The compounds listed in Table 3 are screened for angiogenesis inhibition. The control compound, ASTA, is D-24851, N-[pyridin-4-yl]-[1-(4-chlorobenzyl)-indol-3-yl]-glyoxylic acid amide. Noninhibitors are indicated by the symbol (−), meaning that the extent of endothelial cell growth is essentially at the same level as that of the control.

Assay [8] concerns murine leukemic P388 cells. Put plainly: In vivo anticancer activity, murine leukemic P388 model. The arrangement: species or system DBA/2J mice. As to conditions: for increase of life span: P.O., daily, 4×. The method, then: The in vivo anticancer activities of the compounds are evaluated by the following murine leukemic P388 model. Inbred female DBA/2J mice of 4-5 week-old were purchased from the Charles River Laboratories Inc., Wilmington, Mass., USA and the National Laboratory Animals Breeding and Research Center, Taipei, Taiwan, ROC. Murine leukemic P388 cells are purchased from the Japanese Collection of Research Bioresources, Japan. P388 cells are cultured and propagated in RPMI1640 medium supplemented with 50 μM 2-mercaptoethanol and 10% fetal bovine serum. Mice at the age of 6 weeks were grouped as the treatment, negative control and positive control groups at 7 to 8 mice per group. All mice are intravenously inoculated with the P388 cells at one million per mouse one day before the treatments initiated. Compounds of this invention are dissolved in dimethyl sulfoxide (DMSO) and then diluted in 0.5% carboxymethyl cellulose with the final concentration of DMSO less than 0.5%. Different treatment groups are orally given (P.O.), respectively, with compounds of different doses for a pharmacological dose-response relationship. Mice of the negative control group are treated with the dosing vehicle, 0.5% carboxymethyl cellulose. Doxorubicin of the maximal tolerated dose, 10 mg/kg, is given intravenously as an experimental positive control. The cancer cell-inoculated animals are monitored twice daily. The time on which 50% of the P388-inoculated mice is still surviving is defined as the medium survival time and is used to calculate the percentage (normalized to the medium survival time of the control group) of increased in life span after treatment, which is then served as the index of treatment response.

A word on the IC50: it is the concentration needed to halve the response being measured. As to `N#Cc1ccc(Cn2cc(C(=O)C(=O)Nc3ccc(I)cc3)c3ccccc32)cc1` [Compound 13], the IC50 in assay [1] stood at 0.846 µM; in assay [2], 0.356 µM; in assay [3], 6.31 µM; in assay [4], 0.098 µM; with gastric HR cancer cells it was 0.396 µM; in assay [5] it was 0.431 µM. In addition, the IC50 is 0.577 µM with breast MCF7 cancer cells and 0.597 µM in [6]. For the same compound, in assay [7] (final conc. 0.3 μg/ml), the “Inhibition Score” value was “+++++”.

Consider `Cc1cc(NC(=O)C(=O)c2cn(Cc3ccc(C#N)cc3)c3ccc(Br)cc23)sn1` [Compound 24], for which the 50% inhibitory concentration (IC50) in assay [1] amounted to 5.8 µM; in [2], 2.84 µM; in assay [3], 3.59 µM; in assay [4] it was 0.401 µM; in the assay with gastric HR cancer cells, 5.46 µM; in [5], 1.72 µM. The IC50 was determined as 7.65 µM with breast MCF7 cancer cells and 2.55 µM in assay [6]. Also, in assay [7] (final conc. 0.3 μg/ml), the “Inhibition Score” value was “−”.

Regarding `N#Cc1ccc(Cn2cc(C(=O)C(=O)Nc3cc(-c4ccc(Cl)cc4)no3)c3ccccc32)cc1` [Compound 30], the concentration for half-maximal inhibition (IC50) in assay [1] amounted to 0.926 µM; in assay [2] it was 0.558 µM; in assay [3] it was 0.953 µM; in assay [4] it was 0.332 µM; in the assay on gastric HR cancer cells, 0.739 µM; in assay [5] it was 0.639 µM. The IC50 in the assay on breast MCF7 cancer cells worked out at 0.92 µM; in [6] it was 0.847 µM.

`COc1ccc(NC(=O)C(=O)c2cn(Cc3ccccc3C#N)c3ccccc23)cc1` [Compound 32]: the IC50 in assay [1] stood at 5.65 µM; in [2] it was 1.91 µM; in assay [3] it was 4.77 µM; in assay [4], 0.928 µM; in the assay on gastric HR cancer cells, 2.25 µM; in assay [5], 4.85 µM. Moreover, the figures for the IC50 (with breast MCF7 cancer cells; in assay [6]) were 5.18 µM and 5.29 µM, respectively. In addition, the “Inhibition Score” value in [7] (final conc. 0.3 μg/ml) is “+++++”.

For `N#Cc1ccc(Cn2cc(C(=O)C(=O)NCCCCCCOc3ccc(Cl)cc3)c3ccccc32)cc1` [Compound 43], the half-inhibitory concentration (IC50) amounted to 0.534 µM in [1]; 0.2 µM in [2]; 0.713 µM in assay [3]; 0.031 µM in assay [4]; 0.291 µM with gastric HR cancer cells; 0.134 µM in [5]. The IC50 in the assay on breast MCF7 cancer cells is 0.856 µM; in [6], 0.412 µM.

As for `Cc1cc(NC(=O)C(=O)c2cn(Cc3cccs3)c3ccccc23)sn1` [Compound 44], the “Inhibition Score” value in assay [7] (final conc. 1 μg/ml) is “+++++”.

For `O=C(Nc1ccc2ncccc2c1)C(=O)c1cn(Cc2ccsc2)c2ccccc12` [Compound 48], the half-inhibitory concentration (IC50) was 1.43 µM in assay [1]; 0.303 µM in [2]; 4.13 µM in assay [3]; 0.217 µM in assay [4]; 0.552 µM in the assay on gastric HR cancer cells; 0.206 µM in assay [5]. For the same compound, the values for the IC50 (with breast MCF7 cancer cells; in [6]) were 0.915 µM and 0.371 µM, respectively. Besides, the “increase of life span” value in [8] (25 mg/kg, P388-inoculated mice) stood at 25%; in assay [8] (50 mg/kg, P388-inoculated mice) it was 60%; in assay [8] (100 mg/kg, P388-inoculated mice) it was 25%; in assay [8] (150 mg/kg, P388-inoculated mice) it was 68 ± 25%; in [8] (200 mg/kg, P388-inoculated mice) it was 63%; in assay [8] (400 mg/kg, P388-inoculated mice) it was 229%. In addition, in assay [8] (oral, P388-inoculated mice), the “activity in the increase of life span (dose-response)” value is reported as “dose-dependent activity”.

Take `COc1ccc(NC(=O)C(=O)c2cn(Cc3ccsc3)c3ccccc23)cc1` [Compound 50]: the half-inhibitory concentration (IC50) in assay [1] was determined as 0.734 µM; in [2], 0.046 µM; in [3] it was 1.32 µM; in [4], 0.038 µM; with gastric HR cancer cells it was 0.128 µM; in [5], 0.037 µM. In addition, the figures for the IC50 (in the assay on breast MCF7 cancer cells; in assay [6]) were 0.171 µM and 0.406 µM, respectively.

Take `Cc1cc(Cn2cc(C(=O)C(=O)Nc3ccc(Br)cc3)c3ccccc32)on1` [Compound 62]: the concentration for half-maximal inhibition (IC50) in assay [1] turned out to be 0.651 µM; in [2] it was 0.148 µM; in assay [3], 6.81 µM; in assay [4] it was 0.042 µM; in the assay with gastric HR cancer cells, 0.3 µM; in [5], 0.137 µM. Moreover, the IC50 in the assay with breast MCF7 cancer cells stood at 0.872 µM; in assay [6] it was 0.509 µM.

Turning to `COc1cccc2c1C(=O)c1c(O)c3c(c(O)c1C2=O)C[C@@](O)(C(=O)CO)C[C@@H]3O[C@H]1C[C@H](N)[C@H](O)[C@H](C)O1` [doxorubicin, reference compound], the “increased of life span” value in assay [8] (maximal tolerated dose, 10 mg/kg, intravenously, mean±sd) turned out to be 119±18%.
